In patent US20260242391A1 (priority 2023, published 2026) one finds IC50 and EC50 data, which are given here for 14 molecules.

One data set can be described thus: in vitro. The settings on record: human.
A further data set concerns HL-60. Put plainly: HL-60 differentiation potency. The class given is cell-based. To be noted: Homo sapiens.

As to `C[C@H]1[C@@H](OC[C@]2(F)CC[C@@H](C(=O)O)CC2)O[C@@H]2O[C@@]3(C)CC[C@H]4[C@H](C)CC[C@@H]1[C@@]24OO3` [Compound 200, (1R,4s)-4-fluoro-4-((((3R,5aS,6R,8aS, 9R,10S,12R, 12aR)-3,6,9-trimethyldeca-hydro-12H-3,12-epoxy[1,2]dioxepino[4,3-i]isochromen-10-yl)oxy)methyl) cyclohexane-1-carboxylic acid], the 50% inhibitory concentration (IC50) in the data set “in vitro” is 15.3 µM. Besides, the EC50 with HL-60 was determined as 4470 nM.

For `C[C@H]1[C@@H](Oc2ccc(C(=O)N3C[C@H]4[C@@H]([C@H]3C(=O)O)C4(C)C)cc2)O[C@@H]2O[C@@]3(C)CC[C@H]4[C@H](C)CC[C@@H]1[C@@]24OO3` [Compound 190, (1R,2S,5S)-6,6-dimethyl-3-(4-(((3R,5aS,6R,8aS, 9R,10S,12R, 12aR)-3,6,9-trimethyldeca-hydro-12H-3,12-epoxy[1,2]dioxepino[4,3-i]isochromen-10-yl)oxy)benzoyl)-3-azabicyclo[3.1.0] hexane-2-carboxylic acid], the IC50 in “in vitro” amounted to 0.33 µM. The molecule further came in with an EC50 in the data set with HL-60 of 80.3 nM.

Take `C[C@H]1[C@@H](OCc2ccc(NC(=O)[C@H]3CC[C@@H](C(=O)O)C3)cc2)O[C@@H]2O[C@@]3(C)CC[C@H]4[C@H](C)CC[C@@H]1[C@@]24OO3` [Compound 294, (1R,3S)-3-((4-((((3R,5aS,6R,8aS, 9R,10S,12R, 12aR)-3,6,9-trimethyldeca-hydro-12H-3,12-epoxy[1,2]dioxepino[4,3-i]isochromen-10-yl)oxy)methyl)phenyl)carbamoyl) cyclopentane-1-carboxylic acid]: the IC50 in the data set “in vitro” came to 15.8 µM. This molecule also registered an EC50 with HL-60 of 65 nM.

The molecule `C[C@H]1[C@@H](Oc2ccc(C(=O)N[C@H]3CCC[C@H]3C(=O)O)cc2)O[C@@H]2O[C@@]3(C)CC[C@H]4[C@H](C)CC[C@@H]1[C@@]24OO3` [Compound 187, (1R,2S)-2-(4-(((3R,5aS,6R,8aS, 9R,10S,12R, 12aR)-3,6,9-trimethyldeca-hydro-12H-3,12-epoxy[1,2]dioxepino[4,3-i]isochromen-10-yl)oxy)benzamido) cyclopentane-1-carboxylic acid] yielded an IC50 in “in vitro” of 2.4 µM. For the same molecule, the EC50 with HL-60 is 33.3 nM.

As to `C[C@H]1[C@@H](OCc2ccc(C(=O)NC34CC(C(=O)O)(C3)C4)cc2)O[C@@H]2O[C@@]3(C)CC[C@H]4[C@H](C)CC[C@@H]1[C@@]24OO3` [Compound 273, 3-(4-((((3R,5aS,6R,8aS, 9R,10S,12R, 12aR)-3,6,9-trimethyldeca-hydro-12H-3,12-epoxy[1,2]dioxepino[4,3-i]isochromen-10-yl)oxy)methyl)benzamido) bicyclo[1.1.1] pentane-1-carboxylic acid], the IC50 in “in vitro” stood at 19.4 µM. The EC50 in the data set on HL-60 came to 2890 nM.

In the case of `C[C@H]1[C@@H](Oc2ccc(C(=O)Nc3ccc(C(=O)O)cc3)cc2)O[C@@H]2O[C@@]3(C)CC[C@H]4[C@H](C)CC[C@@H]1[C@@]24OO3` [Compound 246, 4-(4-(((3R,5aS,6R,8aS, 9R,10S,12R, 12aR)-3,6,9-trimethyldeca-hydro-12H-3,12-epoxy[1,2]dioxepino[4,3-i]isochromen-10-yl)oxy)benzamido) benzoic acid], the midpoint of inhibition in “in vitro”, the IC50, lay at 0.04 µM. This molecule had a 50% effective concentration (EC50) with HL-60 of 15.8 nM.

Molecule `C[C@H]1[C@@H](OCc2c(F)cc(C(=O)O)cc2Cl)O[C@@H]2O[C@@]3(C)CC[C@H]4[C@H](C)CC[C@@H]1[C@@]24OO3` [Compound 215, 3-chloro-5-fluoro-4-((((3R,5aS,6R,8aS, 9R,10S,12R, 12aR)-3,6,9-trimethyldeca-hydro-12H-3,12-epoxy[1,2]dioxepino[4,3-i]isochromen-10-yl)oxy)methyl) benzoic acid] registered a half-inhibitory concentration (IC50) in the data set “in vitro” of 5.51 µM. Moreover, the EC50 in the data set with HL-60 was determined as 66.5 nM.

Molecule `C[C@H]1[C@@H](OCc2ccc(C(=O)N[C@H]3CC[C@@H](C(=O)O)C3)cc2)O[C@@H]2O[C@@]3(C)CC[C@H]4[C@H](C)CC[C@@H]1[C@@]24OO3` [Compound 275, (1R,3S)-3-(4-((((3R,5aS,6R,8aS, 9R,10S,12R, 12aR)-3,6,9-trimethyldeca-hydro-12H-3,12-epoxy[1,2]dioxepino[4,3-i]isochromen-10-yl)oxy)methyl)benzamido) cyclopentane-1-carboxylic acid] registered a half-inhibitory concentration (IC50) in the data set “in vitro” of 6.8 µM. For the same molecule, the concentration for a half-maximal effect (EC50) in the data set on HL-60 stood at 240 nM.

`C[C@H]1[C@@H](Oc2ccc(C(=O)NC3(C(=O)O)COC3)cc2Cl)O[C@@H]2O[C@@]3(C)CC[C@H]4[C@H](C)CC[C@@H]1[C@@]24OO3` [Compound 265, 3-(3-chloro-4-(((3R,5aS,6R,8aS, 9R,10S,12R, 12aR)-3,6,9-trimethyldeca-hydro-12H-3,12-epoxy[1,2]dioxepino[4,3-i]isochromen-10-yl)oxy)benzamido) oxetane-3-carboxylic acid] showed an IC50 in the data set “in vitro” of 17.2 µM. A half-maximal effect in the data set with HL-60 (EC50) was put at 6450 nM.

`CC(C(=O)N[C@H]1CC[C@@H](C(=O)O)C1)c1ccc(O[C@H]2O[C@@H]3O[C@@]4(C)CC[C@H]5[C@H](C)CC[C@@H]([C@H]2C)[C@@]35OO4)c(F)c1` (stereo partly drawn) [Compound 306, (1R,3S)-3-(2-(3-fluoro-4-(((3R,5aS,6R,8aS, 9R,10S,12R, 12aR)-3,6,9-trimethyldeca-hydro-12H-3,12-epoxy[1,2]dioxepino[4,3-i]isochromen-10-yl)oxy)phenyl)propanamido) cyclopentane-1-carboxylic acid] came in with an IC50 in the data set “in vitro” of 0.69 µM. The molecule further returned an EC50 with HL-60 of 13.3 nM.

`C[C@H]1[C@@H](OCc2ccc(C(=O)NC3CC4(C3)CC(C(=O)O)C4)cc2)O[C@@H]2O[C@@]3(C)CC[C@H]4[C@H](C)CC[C@@H]1[C@@]24OO3` (stereo partly drawn) [Compound 291, 6-(4-((((3R,5aS,6R,8aS, 9R,10S,12R, 12aR)-3,6,9-trimethyldeca-hydro-12H-3,12-epoxy[1,2]dioxepino[4,3-i]isochromen-10-yl)oxy)methyl)benzamido)spiro [3.3]heptane-2-carboxylic acid] registered an IC50 in the data set “in vitro” of 13.4 µM. The molecule further displayed a 50% effective concentration (EC50) in the data set with HL-60 of 47.8 nM.

In the data set “in vitro”, `C[C@H]1[C@@H](OC[C@H]2CC[C@@H](C(=O)N[C@H](C(=O)O)C(C)(C)C)CC2)O[C@@H]2O[C@@]3(C)CC[C@H]4[C@H](C)CC[C@@H]1[C@@]24OO3` [Compound 242, (S)-3,3-dimethyl-2-((1R,4R)-4-((((3R,5aS,6R,8aS, 9R,10S,12R, 12aR)-3,6,9-trimethyldeca-hydro-12H-3,12-epoxy[1,2]dioxepino[4,3-i]isochromen-10-yl)oxy)methyl)cyclohexane-1-carboxamido) butanoic acid] displayed an IC50 of 1.27 µM. Further, the response in the data set on HL-60 was half-maximal at 21.3 nM (EC50).

As to `C[C@H]1[C@@H](OCc2ccc(C(=O)N3CCC(C(=O)O)CC3)cc2)O[C@@H]2O[C@@]3(C)CC[C@H]4[C@H](C)CC[C@@H]1[C@@]24OO3` [Compound 277, 1-(4-((((3R,5aS,6R,8aS, 9R,10S,12R, 12aR)-3,6,9-trimethyldeca-hydro-12H-3,12-epoxy[1,2]dioxepino[4,3-i]isochromen-10-yl)oxy)methyl)benzoyl) piperidine-4-carboxylic acid], the IC50 in the data set “in vitro” was > 20 µM. In the data set on HL-60, this molecule returned an EC50 of 1780 nM.

`C[C@H]1[C@@H](Oc2ccc(CC(=O)N[C@H](C(=O)O)C3CC3)cc2)O[C@@H]2O[C@@]3(C)CC[C@H]4[C@H](C)CC[C@@H]1[C@@]24OO3` [Compound 301, (S)-2-cyclopropyl-2-(2-(4-(((3R,5aS,6R,8aS, 9R,10S,12R, 12aR)-3,6,9-trimethyldeca-hydro-12H-3,12-epoxy[1,2]dioxepino[4,3-i]isochromen-10-yl)oxy)phenyl)acetamido) acetic acid]: the IC50 in the data set “in vitro” is > 20 µM. In the data set with HL-60, this molecule yielded an EC50 of 63.5 nM.

By IC50 is commonly meant the midpoint of a concentration-inhibition curve. Usually EC50 stands for the concentration at which the effect is half-maximal. Low values mean an effect from little substance, high ones a need for much substance.
